Data: patent US20230393140A1, “BINDING ASSAYS INVOLVING A PLURALITY OF SYNTHETIC COMPOUNDS, TARGETS, AND COUNTER TARGETS” (SRI International, priority 2020, published 2023)
Like-named read-outs stand apart in the source and are kept apart here. Marks after values point to notes of the source that are not given here. Numbered stars: 1 amine (or outer) side, 2 acyl side, 3 side chain; on linkers, the order of the positions; unused ones are H or OH. Square brackets hold non-standard residues; d marks the D form. Ends that are not written are not given here. Peptide text beside a SMILES is read from it. * marks the point of attachment. 5FAM = O=C1OC2(c3ccc(O)cc3Oc3cc(O)ccc32)c2ccc(C(=O)*)cc21; NHCH2C6H4(4-CH2CONH2) = NC(=O)Cc1ccc(CN*)cc1; X1 = O=C(Cc1ccc(CN[*:1])cc1)[*:2]

Key:
[1] = molecular target: T1, K-Ras (Homo sapiens, UniProt P01116, G12V); test: MST binding affinity of resynthesized NNP hits to K-Ras
T1 construct: purchased Cytoskeleton Inc. CS-RS04
Summary of the method: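 K-Ras G12V was GTP-loaded (EDTA exchange, 750 μM GTP, 2 h at 30° C, then MgCl2) and labeled with maleimide-647 dye. MST was run at room temperature in 20 mM HEPES pH 7.4, 150 mM NaCl, 10 mM MgCl2, 0.05% Tween-20, 1 mM DTT. Incubations lasted 15, 30 and 45 min; triplicate data fitted for affinity.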

[2] = molecular target: T2, K-Ras-Raf interaction (Homo sapiens, UniProt P01116, G12V); test: K-Ras/Raf inhibition assay (MST competition binding); details: NNP at 1 μM pre-incubated with K-Ras 15 minutes at room temperature, then Raf titration
T2 construct: purchased Cytoskeleton Inc. (K-Ras); Jena Bioscience (Raf-RBD) CS-RS04; PR-305
Procedure: This was tested on an MST competition binding assay (see FIG. 11A).
Loading was performed according to the following protocol: The 200 μM stock solution of the target protein was diluted to 10 μM in 20 mM HEPES pH 8.0, 150 mM NaCl, 10 mM MgCl2, 1 mM TCEP, 0.05% Tween-20 (total volume 110 μL). 10 μL were set aside for later labeling quality control. EDTA pH 8.0 (stock concentration 10 mM) was added to the protein solution to a final concentration of 80 μM. GTP (stock concentration 50 mM) was added to the protein solution to a final concentration of 750 μM. The solution was incubated at 30° C. for 2 hours (PCR tube) and then placed on ice for 2 minutes. MgCl2 was added to the protein solution to a final concentration of 100 mM. The resulting protein solution was buffer exchanged into the buffer required in the labeling kit for labeling. […] All the other target molecules (TNFα, IL-6, IL-6R and ASGPR) were used as received without any additional treatment.
Loading of K-Ras with the GTP was performed according to the protocol detailed above (Activation of K-Ras by GTP loading). After the GTP loading the resulting protein solution was buffer exchanged into 100 mM HEPES pH 6.5, 5 mM MgCl2, 50 mM NaCl, 1 mM TCEP.

[3] = molecular target: T3, K-Ras-CF555 versus Raf-AF647 (Homo sapiens, UniProt P01116, G12V); test: On-bead FAST/ADM competition screen, MFI of target and counter target; type: binding; details: hit bead in primary competition screen
T3 construct: purchased Cytoskeleton Inc. (K-Ras); Jena Bioscience (Raf-RBD) CS-RS04; PR-305

[4] = molecular target: T4, cRaf/K-Ras (G12V) PPI (Homo sapiens, UniProt P01116, G12V); test: K-Ras-cRaf HTRF-based PPI profiling; type: biochemical; details: for HillSlope: curve fit of % binding, K-Ras G12V 30 nM, GST-cRaf 10 nM; for blank corrected HTRF: raw data, compounds without fluorescein;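 as to blank corrected HTRF: background is the signal of wells with all components except cRaf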
T4 construct: b-Kras G12V (GppNHp) (aa 2-169); biotin (b-
Summary of the method: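 K-Ras(G12V) pre-incubated 30 min at room temperature with compound in 20 mM HEPES pH 7.4, 150 mM NaCl, 5 mM MgCl2, 1 mM DTT, 0.005% NP40, 1% DMSO, then cRaf added. HTRF read via anti-GST-Tb cryptate/streptavidin-XL665. % binding is relative to DMSO controls; curves fitted only if activity at top concentration fell below 65%.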

[5] = test system: biotinylated GST; test: Interference check with biotinylated GST and detection mix
Description: Table 20 below provides an interference check on the synthetic compounds using biotinylated GST, which was used with the detection mix to check for compound effect on fluorescence.

[6] = type: in vitro ADME; details: 17 h
Procedure: For human plasma stability, lyophilized human plasma was reconstituted in sterile water for injection, aliquoted into 200 uL aliquots and stored frozen at −80 degrees C. prior to the stability studies. For the stability studies three aliquots per NNP were thawed at room temperature. An additional set of three aliquots for a positive control peptide (Angiotensin I) were also thawed. The incubations for the plasma stability were initiated by mixing 2 uL of a 2 mM stock solution of NNP IL6R-87-8 or positive control in DMSO with the 200 uL thawed plasma aliquot. After briefly vortex-mixing, 50 uL zero-time-point samples were removed, mixed with 50 uL of water and 400 uL of acetonitrile and frozen on dry ice until all time point samples had been collected. The samples were incubated at 37 degrees C. with samples removed and water/acetonitrile added at 1 hour, 3 hours, and 17 hours. Proteins were precipitated by centrifuging the samples at 17,000 G, 4 degrees C. for 1 hour. The supernatants were removed and concentrated in a centrifugal vacuum concentrator (GeneVac Genie II) at 45 degrees C. until the volume had been reduced to around 60 uL. […]

[7] = read-out: KD of K-Ras hits by MST
[8] = K-Ras, compound with fluorescein on N-term, read-out: KD[nM] in MST (with fluorescein on N-term)
[9] = read-out: KD (nM) [95% conf. int], MST, NNP1 library hit, target K-Ras, one-site binding model

Compound | Kd [1, 7] | Inhibition of K-Ras-Raf PPI [2] | Kd [1, 8] | Kd [1, 9] | HillSlope [4] | blank corrected HTRF ([4]; conc. 1.00E−05) | blank corrected HTRF ([4]; conc. 1.11E−06) | blank corrected HTRF ([4]; conc. 3.33E−06) | blank corrected HTRF ([4]; conc. 3.70E−07) | blank corrected HTRF ([4]; conc. 4.12E−08) | blank corrected HTRF ([4]; conc. 4.57E−09) | blank corrected HTRF ([4]; conc. 5.08E−10) | % signal compared to DMSO ([5]; assay conc. 0.000508053 μM) | % signal compared to DMSO ([5]; assay conc. 0.001524158 μM) | % signal compared to DMSO ([5]; assay conc. 0.004572474 μM) | % signal compared to DMSO ([5]; assay conc. 0.013717421 μM) | % signal compared to DMSO ([5]; assay conc. 0.041152263 μM) | % signal compared to DMSO ([5]; assay conc. 0.12345679 μM) | % signal compared to DMSO ([5]; assay conc. 0.37037037 μM) | % signal compared to DMSO ([5]; assay conc. 1.111111111 μM) | further results
CC(C)C[C@@H](NC(=O)c1ccc2c(c1)C(=O)OC21c2ccc(O)cc2Oc2cc(O)ccc21)C(=O)N1CCC[C@@H]1C(=O)N[C@H](CCC(=O)O)C(=O)N[C@H](CO)C(=O)N[C@@H](Cc1ccccc1)C(=O)NCc1ccc(CC(=O)NCC(=O)N[C@@H](C(=O)N2CCC[C@@H]2C(=O)N[C@H](CCCNC(=N)N)C(=O)N[C@@H](C)C(=O)NCc2ccc(CC(=O)N3CCC[C@@H]3C(=O)N[C@H](CO)C(=O)N[C@H](CCC(=O)O)C(=O)N[C@H](CCCNC(=N)N)C(=O)NCC(=O)NCc3ccc(CC(=O)N4CCC[C@@H]4C(=O)N[C@H](CCCCN)C(=O)N[C@H](Cc4ccc(O)cc4)C(=O)N[C@H](CCCNC(=N)N)C(=O)N[C@@H](Cc4ccccc4)C(=O)NCc4ccc(CC(=O)N[C@H](CCCNC(=N)N)C(=O)N[C@H](Cc5ccc(O)cc5)C(=O)N[C@@H](C(=O)N[C@H](CCC(=O)O)C(=O)N[C@@H](C)C(=O)NCc5ccc(CC(=O)N[C@H](Cc6ccc(O)cc6)C(=O)N6CCC[C@@H]6C(=O)N[C@H](CCCNC(=N)N)C(=O)N[C@H](CCC(=O)O)C(=O)NCC(=O)NCc6ccc(CC(N)=O)cc6)cc5)[C@H](C)O)cc4)cc3)cc2)C(C)C)cc1 [KRAS-1-4] (5FAM-[dL][dP][dE][dS]F[X1]G[dV][dP][dR]A[X1][dP][dS][dE][dR]G[X1][dP][dK][dY][dR]F[X1][dR][dY][dT][dE]A[X1][dY][dP][dR][dE]G-{NHCH2C6H4(4-CH2CONH2)}) | 36 nM | no inhibition |  |  |  |  |  |  |  |  |  |  |  |  |  |  |  |  |  |  | MFI ratio of the target (K-Ras-CF555) to the counter target (Raf-AF647) for the hit beads [3]: 1.89
CC(C)C[C@@H](NC(=O)[C@@H](Cc1ccc(O)cc1)NC(=O)[C@H]1CCCN1C(=O)[C@@H](CO)NC(=O)Cc1ccc(CNC(=O)CNC(=O)[C@@H](Cc2c[nH]c3ccccc23)NC(=O)[C@@H](CCCNC(=N)N)NC(=O)CNC(=O)[C@H]2CCCN2C(=O)Cc2ccc(CNC(=O)[C@H](C)NC(=O)[C@@H](CCCNC(=N)N)NC(=O)[C@H]3CCCN3C(=O)[C@H](NC(=O)[C@@H](Cc3ccc(O)cc3)NC(=O)Cc3ccc(CNC(=O)[C@H](Cc4ccccc4)NC(=O)[C@@H](CO)NC(=O)[C@@H](CCCNC(=N)N)NC(=O)[C@H]4CCCN4C(=O)CNC(=O)Cc4ccc(CNC(=O)[C@H](C)NC(=O)[C@@H](CCCNC(=N)N)NC(=O)[C@H]5CCCN5C(=O)[C@H](NC(=O)CNC(=O)Cc5ccc(CNC(=O)[C@@H](NC(=O)[C@@H](Cc6ccc(O)cc6)NC(=O)[C@@H](Cc6c[nH]cn6)NC(=O)[C@H]6CCCN6C(=O)[C@@H](Cc6c[nH]c7ccccc67)NC(=O)c6ccc7c(c6)C(=O)OC76c7ccc(O)cc7Oc7cc(O)ccc76)C(C)C)cc5)C(C)C)cc4)cc3)[C@H](C)O)cc2)cc1)C(=O)N[C@@H](C)C(=O)NCc1ccc(CC(N)=O)cc1 [KRAS-1-8] (5FAM-[dW][dP][dH][dY]V[X1]G[dV][dP][dR]A[X1]G[dP][dR][dS]F[X1][dY][dT][dP][dR]A[X1][dP]G[dR][dW]G[X1][dS][dP][dY][dL]A-{NHCH2C6H4(4-CH2CONH2)}) | 44 nM | complete inhibition | 44 nM | 44 nM | −0.6222 | 7296 | 10835 | 9028 | 12171 | 15230 | 14396 | 13397 | 99.94% | 102.4% | 103% | 98.33% | 87.69% | 97.53% | 93.95% | 81.88% | blank corrected HTRF ([4]; conc. 1.37E−08): 15117; % signal compared to DMSO ([5]; assay conc. 3.333333333 μM): 68.53%; % signal compared to DMSO ([5]; assay conc. 10 μM): 56.45* %
CC(C)C[C@H](NC(=O)[C@@H](C)NC(=O)[C@@H](CCC(=O)O)NC(=O)[C@H](NC(=O)[C@@H](CCCCN)NC(=O)Cc1ccc(CNC(=O)[C@H](C)NC(=O)[C@@H](CCCNC(=N)N)NC(=O)[C@H]2CCCN2C(=O)[C@H](NC(=O)CNC(=O)Cc2ccc(CNC(=O)[C@H](Cc3ccccc3)NC(=O)[C@@H](CO)NC(=O)[C@@H](CCC(=O)O)NC(=O)[C@H]3CCCN3C(=O)[C@@H](CC(C)C)NC(=O)c3ccc4c(c3)C(=O)OC43c4ccc(O)cc4Oc4cc(O)ccc43)cc2)C(C)C)cc1)[C@H](C)O)C(=O)NCc1ccc(CC(=O)N[C@H](Cc2ccc(O)cc2)C(=O)N[C@@H](C(=O)N2CCC[C@@H]2C(=O)N[C@H](CCCNC(=N)N)C(=O)N[C@@H](C)C(=O)NCc2ccc(CC(=O)N3CCC[C@@H]3C(=O)NCC(=O)N[C@H](CCCNC(=N)N)C(=O)N[C@H](Cc3c[nH]c4ccccc34)C(=O)NCC(=O)NCc3ccc(CC(=O)NCC(=O)N[C@H](Cc4c[nH]c5ccccc45)C(=O)N[C@H](Cc4c[nH]cn4)C(=O)N[C@H](CCCNC(=N)N)C(=O)N[C@@H](C)C(=O)NCc4ccc(CC(N)=O)cc4)cc3)cc2)[C@H](C)O)cc1 [KRAS-1-13] (5FAM-[dL][dP][dE][dS]F[X1]G[dV][dP][dR]A[X1][dK][dT][dE][dA]L[X1][dY][dT][dP][dR]A[X1][dP]G[dR][dW]G[X1]G[dW][dH][dR]A-{NHCH2C6H4(4-CH2CONH2)}) | 30 nM | partial inhibition | 30 nM | 30 nM | −0.821 | 3798 | 8379 | 3957 | 9542 | 14025 | 13413 | 5044 | 101.8% | 103.1% | 102.8% | 101.9% | 102.1% | 100.3% | 100.4% | 94.53% | blank corrected HTRF ([4]; conc. 1.52E−09): 13665; % signal compared to DMSO ([5]; assay conc. 3.333333333 μM): 80.42%; % signal compared to DMSO ([5]; assay conc. 10 μM): 62.38* %
DRVYIHPFHL [Angiotensin I, reference compound] |  |  |  |  |  |  |  |  |  |  |  |  |  |  |  |  |  |  |  |  | Stability in human plasma [6]: completely degraded within four hours
